According to PubChem BioAssay (NCI):
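Assay format: 96-well plates, 48-hour exposure. GI50 = concentration required for 50% inhibition of growth. Definition used: TGI = concentration required for complete inhibition of growth.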

How the values were obtained:
Assay in all cases: NCI anticancer screen, dose series, 48 h
NCI-H460 lung = system: NCI-H460 lung
SW-620 colon = system: SW-620 colon
NCI-H23 lung = system: NCI-H23 lung
MDA-MB-435 = system: MDA-MB-435
CAKI-1 renal = system: CAKI-1 renal
HCC-2998 colon = system: HCC-2998 colon
HCT-116 colon = system: HCT-116 colon
ACHN renal = system: ACHN renal
UACC-62 melanoma = system: UACC-62 melanoma
OVCAR-5 ovarian = system: OVCAR-5 ovarian

| Compound | GI50 (NCI-H460 lung) [µM] | TGI (NCI-H460 lung) [µM] | GI50 (SW-620 colon) [µM] | TGI (SW-620 colon) [µM] | GI50 (NCI-H23 lung) [µM] | TGI (NCI-H23 lung) [µM] | GI50 (MDA-MB-435) [µM] | TGI (MDA-MB-435) [µM] | GI50 (CAKI-1 renal) [µM] | TGI (CAKI-1 renal) [µM] | GI50 (HCC-2998 colon) [µM] | TGI (HCC-2998 colon) [µM] | GI50 (HCT-116 colon) [µM] | TGI (HCT-116 colon) [µM] | GI50 (ACHN renal) [µM] | TGI (ACHN renal) [µM] | GI50 (UACC-62 melanoma) [µM] | TGI (UACC-62 melanoma) [µM] | GI50 (OVCAR-5 ovarian) [µM] | TGI (OVCAR-5 ovarian) [µM] |
| --- | --- | --- | --- | --- | --- | --- | --- | --- | --- | --- | --- | --- | --- | --- | --- | --- | --- | --- | --- | --- |
| C[C@@H]1CC[C@@H]2[C@@H]1[C@H](OC(=O)/C=C/c1ccccc1)[C@]1(C3CCCCC3)C[C@@H](NC(=O)CO)[C@@]2(C)O1 | 16.6 | 32.8 | 17.8 | 34.1 | 18.9 | 38.4 | 17.2 | 32.4 | 6.01 | 19.7 | 18.3 | 35.1 | 19.5 | 34.2 | 3.51 | 13.1 | 16.2 | 30.3 | 16.2 | 30.8 |
| CCN1C(NN)=NS(=O)(=O)c2ccccc21 |  | > 100 |  | > 100 |  | > 100 |  | > 100 |  | > 100 |  | > 100 |  | > 100 |  | > 100 |  | > 100 |  | > 100 |
| CN(C)c1ncnc2c1nnn2C1OC(CO)C(O)C1O (centres undefined) | 0.247 | > 100 | 0.293 | > 100 | 0.399 | > 63.2 | 0.234 | > 100 | 0.066 | 8.77 | 0.325 |  | 0.431 | > 100 | 0.141 | > 54 | 0.246 | 1.55 | 2.97 | > 100 |
| CN(C)c1ccc(/C=C2\N=C(c3ccc([N+](=O)[O-])cc3)OC2=O)cc1 |  | > 100 |  | > 100 |  | > 100 |  | > 100 |  | > 100 |  | 72.4 |  | > 100 |  | > 100 |  | > 100 |  | > 100 |
| CCOC(=O)c1c2c(n(Cc3ccccc3)c1C)-c1ccccc1C(=O)C2=O | 6.31 | 21.5 | 11.7 | 28.4 | 12.1 | 27 | 29 | 87 | 17.2 | 36.6 | 6.35 | 19.6 | 11.6 | 25.2 | 12.9 | 30.2 | 17.8 | 34.2 | 15.5 | 40.4 |
| O=C(CF)N(O)c1ccc(/C=C/c2ccccc2)cc1 | 0.322 | > 100 | 1.3 | > 100 | 3.39 | 98.4 | 8.48 | > 100 | 0.609 | 2.85 | 1.64 | 7.69 | 0.805 | 6.63 | 0.736 | 30 | 1.81 | 10.7 | 8.26 | > 100 |
| O=C1c2ccccc2C(=Cc2ccccc2)c2ccccc21 | 2.98 | 15 | 2.43 | 13.8 | 2.59 | 14.1 | 0.31 | 11.9 | 1.54 | 5.49 | 2.69 | 10.1 | 1.89 | 5.13 | 3.89 | 13.4 | 1.68 | 10.3 | 5.04 | 16.9 |
| Cc1ccc(Nc2n[nH]c(=S)s2)cc1 |  | > 100 |  | > 100 |  | > 100 |  | > 100 |  | > 100 |  | > 100 |  | > 100 |  | > 100 |  | > 100 |  | > 100 |
| CN1CCN(Cc2ccc(NC(=O)c3cncc(C#Cc4cncc5ncccc45)c3)cc2C(F)(F)F)CC1 | 2.5 | 11.8 | 1.83 | 10.4 | 1.54 | 12.2 | 2.03 | 12.9 | 4.74 | 16.4 | 2.46 | 17.6 | 1.26 | 11.5 | 1.36 | 10.5 | 1.67 | 9.52 | 1.8 | 14 |
| O=C1C2=Nc3ccccc3C(O)N2c2ccccc21 (centres undefined) |  | > 100 |  | > 100 |  | 28.8 |  | 6.29 |  | > 100 |  | > 94.3 |  | > 100 |  | > 100 |  | 12.9 |  | > 100 |
| C/C1=C/C2=CC(C)C[C@@H]2C(=O)[C@]2(C)C(=O)CC(C)(C)[C@H]2CC1=O (some centres undefined) |  | > 50 |  | > 50 |  | > 50 |  | > 50 |  | > 50 |  | > 50 |  | > 50 |  | > 50 |  | > 50 |  | > 50 |
| CC(=O)OCC(=O)O[C@@H]1C[C@]2(C(C)C)O[C@@]1(C)[C@@H]1CC[C@@H](C)[C@H]1[C@@H]2OC(=O)/C=C/c1ccccc1 | 21.4 | 60.1 | 31 | > 100 | 23.7 | 99.1 | 22 | 59.7 | 0.0244 | 0.125 | 20 | 75.3 | 16.1 | > 100 | 0.0316 | 12.5 | 14.1 | 38.3 | 15.5 | 33.6 |
